# Results from US6395896B2, “Pyridazine derivatives, manufacturing method and related composition” (Shiseido Co., Ltd., priority 1999, dated 2002).
# Tests used:
# skin (antebrachium) = assay: Skin irritation test: occlusive patch test; format: in vivo, human; settings: 10 wt % ultraviolet absorbent, occlusive patch 24 hours
# Method: Sample (10 wt % of ultraviolet absorbent) is the same as test example 2. An occlusive patch test was carried out in the antebrachium part of healthy men and women subjects by finchamber for 24 hours. Each group was twenty subjects. [table] Each of the calculated average scores was evaluated by the following evaluation standard. A: average score is 0. B: average score is over 0 and less than 1. C: average score is 1 or more and less than 2. D: average score is 2 or more.
# [1] = Stability test in case of including UV shielding agent of inorganic powder (sun-screen cream); format: physicochemical; settings: sun-screen cream with inorganic powder, 10.0 wt % ultraviolet absorbent; 2 months at 50° C.; visual observation
# Method: The sun screen cream of the following formulation was manufactured. These were preserved for 2 months at 50° C. By visual observation of discoloration, the inventors have checked stability when using an UV shielding agent of inorganic powder which is included as external skin preparation for the ultraviolet rays defense.
# After (2) was added to (1) and was swelled sufficiently, (3) to (11) was added thereto and was mixed with heating. The mixture was sufficiently dissolved with dispersing. This dispersed liquid was kept at 70° C. After this dispersed liquid was emulsified homogeneously by homomixer with adding a mixture of (12) to (15) gradually, which was cooled to 30° C. with stirring well to obtain sun screen.
# [2] = Drug stabilization effect (photostabilizer, sunlight exposure); parameters: key to Sunlight exposure (80 MJ) Appearance: A: No change; B: No almost change; C: Yes change; settings: for Sunlight exposure (80 MJ) Appearance / Sunlight exposure (80 MJ) Residual yield [%]: photostabilizer 0.05, amounts wt %
# Method: Next, the photo stabilization effect and changes in appearance in drug compositions were studied according to the following evaluation formulation.
# Each test sample was prepared. Appearance changes of the samples exposed to sunlight (80 MJ) was observed (visual evaluation). Also, residual yield was measured by liquid chromatography.
# [3] = Pigment stabilization effect (sequestering agent combination); parameters: key to Sunlight exposure (80 MJ) Appearance: A: No change; B: No almost change; C: Yes change; key to Sunlight exposure (80 MJ) ΔE: color difference ΔE in Lab space vs. color before sunlight exposure; settings: amounts wt %
# Method: First of all, the photostabilization effect and appearance changes of a composition for each pigment were studied by the following evaluation formulation.
# Each test sample was prepared. Observation of appearance changes (visual evaluation) and measurement of color difference (ΔE) were carried out for samples exposed to sunlight (around 80 MJ).
# Color difference was measured by Lab coordinate system with spectrophotometer. Color difference was calculated based on the color before sunlight exposure. Namely, from the measured value (L1,a1,b1) before sunlight exposure, color difference (ΔE) was calculated by following formula.
# [4] = drug 2-o-α-α-glucopyranosyl-L-ascorbic acid 2.0
# [5] = drug Dibutylhydroxytoluene 0.01
# [6] = drug Dipotassium glycyrrhizinate 0.05
# [7] = drug L-ascorbic acid 2-(dl-α-tocopheryl hydrogen phosphate) potassium salt 0.01
# [8] = drug combined with photostabilizer, sunlight 80 MJ, summary of Table 23
# [9] = colorant Blue No. 1 0.0001, photostabilizer 0.02 + Sodium metaphosphate 0.03
# [10] = colorant Blue No. 1 0.0001, photostabilizer 0.02 + Trisodium ethylenediamine tetraacetate 0.03
# [11] = colorant Blue No. 1 0.0001, photostabilizer 0.02 + Trisodium hydroxyethyl ethylenediamine triacetate 0.03
# [12] = colorant Blue No. 1 0.0001, photostabilizer 0.02, no sequestering agent
# [13] = colorant Green No. 3 0.0001, photostabilizer 0.02 + Sodium metaphosphate 0.03
# [14] = colorant Green No. 3 0.0001, photostabilizer 0.02 + Sodium polyphosphate 0.03
# [15] = colorant Green No. 3 0.0001, photostabilizer 0.02 + Trisodium ethylenediamine tetraacetate 0.03
# [16] = colorant Green No. 3 0.0001, photostabilizer 0.02, no sequestering agent
# [17] = colorant Red No. 106 0.0001, photostabilizer 0.02 + Sodium metaphosphate 0.02
# [18] = colorant Red No. 106 0.0001, photostabilizer 0.02 + Sodium polyphosphate 0.02
# [19] = colorant Red No. 106 0.0001, photostabilizer 0.02 + Trisodium ethylenediamine tetraacetate 0.02
# [20] = colorant Red No. 106 0.0001, photostabilizer 0.02, no sequestering agent
# [21] = colorant Red No. 213 0.0001, photostabilizer 0.03 + Sodium metaphosphate 0.05
# [22] = colorant Red No. 213 0.0001, photostabilizer 0.03 + Trisodium ethylenediamine tetraacetate 0.05
# [23] = colorant Red No. 213 0.0001, photostabilizer 0.03 + Trisodium hydroxyethyl ethylenediamine triacetate 0.05
# [24] = colorant Red No. 213 0.0001, photostabilizer 0.03, no sequestering agent
# [25] = colorant Red No. 227 0.0001, photostabilizer 0.01 + Sodium metaphosphate 0.02
# [26] = colorant Red No. 227 0.0001, photostabilizer 0.01 + Trisodium ethylenediamine tetraacetate 0.02
# [27] = colorant Red No. 227 0.0001, photostabilizer 0.01 + Trisodium hydroxyethyl ethylenediamine triacetate 0.02
# [28] = colorant Red No. 227 0.0001, photostabilizer 0.01, no sequestering agent
# [29] = colorant Red No. 401 0.001, photostabilizer 0.02 + Sodium metaphosphate 0.1
structure (smiles),measurement,setting,value
"Oc1nncc(N2CCOCC2)c1N1CCOCC1 [4,5-Dimorpholino-3-hydroxypyridazine]","Judgment (patch test, average skin reaction score)",skin (antebrachium); Cream,A (average score is 0.)
same,"Judgment (patch test, average skin reaction score)",skin (antebrachium); Lotion,A (average score is 0.)
same,Discoloration,[1],No
same,Sunlight exposure (80 MJ) Appearance,[2]; [4],A
same,Sunlight exposure (80 MJ) Residual yield [%],[2]; [4],99.3%
same,Sunlight exposure (80 MJ) Appearance,[2]; [5],A
same,Sunlight exposure (80 MJ) Residual yield [%],[2]; [5],98.8%
same,Sunlight exposure (80 MJ) Appearance,[2]; [6],A
same,Sunlight exposure (80 MJ) Residual yield [%],[2]; [6],100.3%
same,Sunlight exposure (80 MJ) Appearance,[2]; [7],A
same,Sunlight exposure (80 MJ) Residual yield [%],[2]; [7],99.4%
same,Sunlight exposure (80 MJ) Appearance,[2]; drug Salicylic acid 0.1,A
same,Sunlight exposure (80 MJ) Residual yield [%],[2]; drug Salicylic acid 0.1,100.3%
same,appearance changes of the composition,[2]; [8],small
same,residual yield of a drug,[2]; [8],very high in comparison with other photostabilizers
same,Sunlight exposure (80 MJ) Appearance,[3]; [9],A
same,Sunlight exposure (80 MJ) ΔE,[3]; [9],1.00
same,Sunlight exposure (80 MJ) Appearance,[3]; [10],A
same,Sunlight exposure (80 MJ) ΔE,[3]; [10],1.18
same,Sunlight exposure (80 MJ) Appearance,[3]; [11],A
same,Sunlight exposure (80 MJ) ΔE,[3]; [11],1.08
same,Sunlight exposure (80 MJ) Appearance,[3]; [12],B
same,Sunlight exposure (80 MJ) ΔE,[3]; [12],1.74
same,Sunlight exposure (80 MJ) Appearance,[3]; [13],A
same,Sunlight exposure (80 MJ) ΔE,[3]; [13],0.28
same,Sunlight exposure (80 MJ) Appearance,[3]; [14],A
same,Sunlight exposure (80 MJ) ΔE,[3]; [14],0.52
same,Sunlight exposure (80 MJ) Appearance,[3]; [15],A
same,Sunlight exposure (80 MJ) ΔE,[3]; [15],0.48
same,Sunlight exposure (80 MJ) Appearance,[3]; [16],B
same,Sunlight exposure (80 MJ) ΔE,[3]; [16],0.75
same,Sunlight exposure (80 MJ) Appearance,[3]; [17],A
same,Sunlight exposure (80 MJ) ΔE,[3]; [17],0.77
same,Sunlight exposure (80 MJ) Appearance,[3]; [18],A
same,Sunlight exposure (80 MJ) ΔE,[3]; [18],0.85
same,Sunlight exposure (80 MJ) Appearance,[3]; [19],A
same,Sunlight exposure (80 MJ) ΔE,[3]; [19],0.84
same,Sunlight exposure (80 MJ) Appearance,[3]; [20],B
same,Sunlight exposure (80 MJ) ΔE,[3]; [20],1.23
same,Sunlight exposure (80 MJ) Appearance,[3]; [21],A
same,Sunlight exposure (80 MJ) ΔE,[3]; [21],1.38
same,Sunlight exposure (80 MJ) Appearance,[3]; [22],A
same,Sunlight exposure (80 MJ) ΔE,[3]; [22],1.45
same,Sunlight exposure (80 MJ) Appearance,[3]; [23],A
same,Sunlight exposure (80 MJ) ΔE,[3]; [23],1.41
same,Sunlight exposure (80 MJ) Appearance,[3]; [24],B
same,Sunlight exposure (80 MJ) ΔE,[3]; [24],2.12
same,Sunlight exposure (80 MJ) Appearance,[3]; [25],B
same,Sunlight exposure (80 MJ) ΔE,[3]; [25],0.84
same,Sunlight exposure (80 MJ) Appearance,[3]; [26],A
same,Sunlight exposure (80 MJ) ΔE,[3]; [26],0.62
same,Sunlight exposure (80 MJ) Appearance,[3]; [27],A
same,Sunlight exposure (80 MJ) ΔE,[3]; [27],0.58
same,Sunlight exposure (80 MJ) Appearance,[3]; [28],B
same,Sunlight exposure (80 MJ) ΔE,[3]; [28],0.98
same,Sunlight exposure (80 MJ) Appearance,[3]; [29],A
same,Sunlight exposure (80 MJ) ΔE,[3]; [29],0.66
